Test results reported in patent publication US4624950A, “Method for treating atherosclerosis hyperlipidema, lipid deposition on arterial walls, or raising the ratio of high density lipoprotein cholesterol to total cholesterol in serum” (Nissan Chemical Industries Ltd., priority 1983, dated 1986).

Columns and labels:
[1] = tested on: experimental atherosclerosis in rabbits induced by cholesterol diet; assay: Effect on experimental atherosclerosis in rabbits induced by cholesterol diet (Test 4); assay type: in vivo, rabbit (male)
Method: The effect of the compound of the formula I on experimental atherosclerosis in rabbits induced by cholesterol diet
Twenty-five male rabbits weighing 1.8-2.0 kg were used. They were fed with basic chow (Nippon clea, CR-3) for a stabilizing period of 5 days. After this period, they were fed with the chow containing 1% cholesterol, 100 g per head a day for a week (7 days) and plasma cholesterol was measured using a blood sample collected from acuricle vein.
According to the results of cholesterol values measured, 14 animals of high cholesterol plasma level were selected. They were divided into two groups to have nearly equal means and S.D. values of plasma cholesterol. One group of 7 rabbits was fed with the chow containing 1% cholesterol and another group of 7 rabbits was fed with the chow containing 1% cholesterol and 0.1% compound of the formula I in an amount of 100 g per head a day for 8 weeks.
Rabbits were sacrificed at the end of 8 weeks. Aortic arch and thoracic aorta were excised, and macroscopical changes were examined using the Sudan III stain method. According to the results of gross observation of the internal surface stained by Sudan III, the ratios of the atherosclerotic plaque area (the area stained by Sudan III) to the whole internal surface area were calculated. The ratio of inhibition of atherosclerosis of the compound of the formula I was obtained by comparing the average value with the value of the control.

[2] = tested on: Triton-induced hyperlipidemic rats; assay: Antihyperlipidemic activity in Triton-induced hyperlipidemic rats, method A (24 hours) (Test 2); assay type: in vivo, rat (male S.D.)
Method: Cholesterol in serum was measured by means of a cholesterol measuring kit (Cholesterol C-Test Wako, manufactured by Wako Junyaku Co., Ltd.), and cholesterol in HDL was measured by means of NC Hi-Set, manufactured by Nippon Chemiphar Co., Ltd. The quantitative analysis of triglyceride was conducted by means of a triglyceride measuring kit (Triglyceride C-II-Test Wako, manufactured by Wako Junyaku Co., Ltd.). Further, the change rate in the following Tables, was calculated by the following equation. Change rate(%)=(A-B/A)×100 where A is the amount of serum lipids (mg/dl) of the control group, and B is the amount of serum lipids (mg/dl) of the group to which the therapeutic agent was administered. The antihyperlipidemic activity in Triton-induced hyperlipidemic rats Male S.D. rats weighing 230-250 g (7 weeks old) were divided into groups of 5 rats each and injected with a physiological saline solution of Triton Wr-1339 in a dose of 250 mg/kg (5 ml/kg) i.v. through the tail vein. […] The test compounds suspended in 0.5% CMC-Na were given to the rats in an amount of 2 ml/kg via stomach tube 1 hour before and 5 hours after (in the case of method A) or 1 hour before and 23 hours after (in the case of method B) the injection of Triton solution. Control rats received the same volume of the vehicle. The animals were fasted during the experimental period. The total cholesterol and triglyceride in the serum were measured.

[3] = tested on: cholesterol-fed hyperlipidemic rats; assay: Antihyperlipidemic activity in cholesterol-fed hyperlipidemic rats (Test 3); assay type: in vivo, rat (male S.D.)
Method: It is administered from once to three times per day. The dose may of course be varied depending upon the age, the weight or the condition of illness of the patient. […] In the following tests, the fractionation of lipoproteins was conducted by a dextran sulfate-MgCl2 precipitation method.
Cholesterol in serum was measured by means of a cholesterol measuring kit (Cholesterol C-Test Wako, manufactured by Wako Junyaku Co., Ltd.), and cholesterol in HDL was measured by means of NC Hi-Set, manufactured by Nippon Chemiphar Co., Ltd. The quantitative analysis of triglyceride was conducted by means of a triglyceride measuring kit (Triglyceride C-II-Test Wako, manufactured by Wako Junyaku Co., Ltd.).
Further, the change rate in the following Tables, was calculated by the following equation.
Change rate(%)=(A-B/A)×100 where A is the amount of serum lipids (mg/dl) of the control group, and B is the amount of serum lipids (mg/dl) of the group to which the therapeutic agent was administered.
The antihyperlipidemic activity in cholesterol-fed hyperlipidemic rats
Male S.D. rats weighing 80-90 g (30 days old) were divided into groups of 5 rats each. The test compounds suspended in 0.5% CMC-Na were given to the rats in a daily dose of 0.4 ml per 100 g rat via stomach tube every 10:00 a.m. for 7 or 14 days. Control groups were given an equal volume of the vehicle. […] The total cholesterol, triglyceride and HDL cholesterol in serum were measured. After sacrificed, the livers were excised, washed with physiological saline, blotted on filter paper and weighed. The degree of hepatomegaly was calculated by the following equation.
Degree of hepatomegaly (%)=(D-C/C)×100 where C is the liver weight (g) per 100 g body weight in the control animal, and D is the liver weight (g) per 100 g body weight in the drug treated animal.

[4] = 0.1% in 1% cholesterol chow, 8 weeks, vs control
[5] = 0.1% in 1% cholesterol chow, 100 g per head a day, 8 weeks

Structure (SMILES): CN1C(=S)SC(c2ccccc2)N(C)C1c1ccccc1 (centres unmarked) [Compound of the formula I, 3,5-dimethyl-4,6-diphenyl-tetrahydro-2H-1,3,5-thiadiazine-2-thione]
- Ratio of inhibition of atherosclerosis (Ratio of Improvement), Aortic arch [1, 4]: 13.8%
- Ratio of inhibition of atherosclerosis (Ratio of Improvement), Thoracic aorta [1, 4]: 67.7%
- Ratio of inhibition of atherosclerosis (Ratio of Improvement), Total aorta [1, 4]: 45.3%
- Atherosclerotic plaque area stained by Sudan III, Aortic arch [1, 5]: 77.7%
- Atherosclerotic plaque area stained by Sudan III, Thoracic aorta [1, 5]: 11.0%
- Atherosclerotic plaque area stained by Sudan III, Total aorta [1, 5]: 26.3%
- Inhibition of experimental atherosclerosis (in words) ([1]; 1% cholesterol diet): inhibits experimental atherosclerosis
- Change rate after 24 hours, Chol ([2]; 150 mg/kg p.o.): -6.0%
- Change rate after 24 hours, TG ([2]; 150 mg/kg p.o.): +21.8%
- Lipid reducing activity (in words) ([2]; method A): no lipid reducing activity was observed
- Hepatomegaly (in words) ([3]; 7 or 14 days): no hepatomegaly
- Lipid reducing and HDL-cholesterol increasing activity (in words) ([3]; 7th day): not distinct very much
- Change rate, HDL-Chol ([3]; 7th day, 10 mg/kg/day p.o.): -12.7%
- Change rate, TG ([3]; 7th day, 10 mg/kg/day p.o.): -13.8%
- Change rate, Total-Chol ([3]; 7th day, 10 mg/kg/day p.o.): -3.3%
- Degree of hepatomegaly ([3]; 7th day, 10 mg/kg/day p.o.): +4.0%
- Serum lipid, HDL-Chol ([3]; 7th day, 10 mg/kg/day p.o.): 15.8 mg/dL
- Serum lipid, TG ([3]; 7th day, 10 mg/kg/day p.o.): 105.9 mg/dL
- Serum lipid, Total-Chol ([3]; 7th day, 10 mg/kg/day p.o.): 421.7 mg/dL
- Change rate, HDL-Chol ([3]; 7th day, 50 mg/kg/day p.o.): 0%
- Change rate, TG ([3]; 7th day, 50 mg/kg/day p.o.): -15.3%
- Change rate, Total-Chol ([3]; 7th day, 50 mg/kg/day p.o.): -33.6%
- Degree of hepatomegaly ([3]; 7th day, 50 mg/kg/day p.o.): +2.0%
- Serum lipid, HDL-Chol ([3]; 7th day, 50 mg/kg/day p.o.): 18.1 mg/dL
- Serum lipid, TG ([3]; 7th day, 50 mg/kg/day p.o.): 104.0 mg/dL
- Serum lipid, Total-Chol ([3]; 7th day, 50 mg/kg/day p.o.): 289.8 mg/dL
- Change rate, HDL-Chol ([3]; 7th day, 100 mg/kg/day p.o.): +6.1%
- Change rate, TG ([3]; 7th day, 100 mg/kg/day p.o.): -24.5%
- Change rate, Total-Chol ([3]; 7th day, 100 mg/kg/day p.o.): -32.4%
- Serum lipid, HDL-Chol ([3]; 7th day, 100 mg/kg/day p.o.): 19.2 mg/dL
- Serum lipid, TG ([3]; 7th day, 100 mg/kg/day p.o.): 92.7 mg/dL
- Serum lipid, Total-Chol ([3]; 7th day, 100 mg/kg/day p.o.): 294.7 mg/dL
- Change rate, HDL-Chol ([3]; 7th day, 150 mg/kg/day p.o.): -4.4%
- Change rate, TG ([3]; 7th day, 150 mg/kg/day p.o.): -46.1%
- Change rate, Total-Chol ([3]; 7th day, 150 mg/kg/day p.o.): -11.7%
- Degree of hepatomegaly ([3]; 7th day, 150 mg/kg/day p.o.): +12.0%
- Serum lipid, HDL-Chol ([3]; 7th day, 150 mg/kg/day p.o.): 17.3 mg/dL
- Serum lipid, TG ([3]; 7th day, 150 mg/kg/day p.o.): 66.2 mg/dL
- Serum lipid, Total-Chol ([3]; 7th day, 150 mg/kg/day p.o.): 385 mg/dL
- Lipid reducing and HDL-cholesterol increasing activity (in words) ([3]; 14th day): strong lipid reducing activity and HDL-cholesterol increasing activity
- Change rate, HDL-Chol ([3]; 14th day, 10 mg/kg/day p.o.): +129.9%
- Change rate, TG ([3]; 14th day, 10 mg/kg/day p.o.): -44.6%
- Change rate, Total-Chol ([3]; 14th day, 10 mg/kg/day p.o.): -42.5%
- Degree of hepatomegaly ([3]; 14th day, 10 mg/kg/day p.o.): +5.3%
- Serum lipid, HDL-Chol ([3]; 14th day, 10 mg/kg/day p.o.): 20.0 mg/dL
- Serum lipid, TG ([3]; 14th day, 10 mg/kg/day p.o.): 92.5 mg/dL
- Serum lipid, Total-Chol ([3]; 14th day, 10 mg/kg/day p.o.): 336.5 mg/dL
- Change rate, HDL-Chol ([3]; 14th day, 50 mg/kg/day p.o.): +135.6%
- Change rate, TG ([3]; 14th day, 50 mg/kg/day p.o.): -47.5%
- Change rate, Total-Chol ([3]; 14th day, 50 mg/kg/day p.o.): -33.5%
- Degree of hepatomegaly ([3]; 14th day, 50 mg/kg/day p.o.): +1.8%
- Serum lipid, HDL-Chol ([3]; 14th day, 50 mg/kg/day p.o.): 20.5 mg/dL
- Serum lipid, TG ([3]; 14th day, 50 mg/kg/day p.o.): 87.7 mg/dL
- Serum lipid, Total-Chol ([3]; 14th day, 50 mg/kg/day p.o.): 389.2 mg/dL
- Change rate, HDL-Chol ([3]; 14th day, 100 mg/kg/day p.o.): +186.2%
- Change rate, TG ([3]; 14th day, 100 mg/kg/day p.o.): -44.8%
- Change rate, Total-Chol ([3]; 14th day, 100 mg/kg/day p.o.): -53.7%
- Degree of hepatomegaly ([3]; 14th day, 100 mg/kg/day p.o.): +10.5%
- Serum lipid, HDL-Chol ([3]; 14th day, 100 mg/kg/day p.o.): 24.9 mg/dL
- Serum lipid, TG ([3]; 14th day, 100 mg/kg/day p.o.): 92.2 mg/dL
- Serum lipid, Total-Chol ([3]; 14th day, 100 mg/kg/day p.o.): 271.3 mg/dL
- Change rate, HDL-Chol ([3]; 14th day, 150 mg/kg/day p.o.): +147.1%
- Change rate, TG ([3]; 14th day, 150 mg/kg/day p.o.): -53.8%
- Change rate, Total-Chol ([3]; 14th day, 150 mg/kg/day p.o.): -60.9%
- Degree of hepatomegaly ([3]; 14th day, 150 mg/kg/day p.o.): +5.3%
- Serum lipid, HDL-Chol ([3]; 14th day, 150 mg/kg/day p.o.): 21.5 mg/dL
- Serum lipid, TG ([3]; 14th day, 150 mg/kg/day p.o.): 77.1 mg/dL
- Serum lipid, Total-Chol ([3]; 14th day, 150 mg/kg/day p.o.): 228.6 mg/dL
